The text below walks through data of patent US7378435B2, “Aryl-isoxazole-4-carbonyl-indole-carboxylic acid amide derivatives” (Hoffmann-La Roche Inc., priority 2005, dated 2008).

Molecules are shown by their SMILES. Like-named read-outs stand apart in the source and are kept apart here.

The target in the assay is T1, GABA A receptor α5β3γ2 (Homo sapiens, UniProt P18507+P31644).
T1 construct: expressed in transfected cells; host or cells: HEK293 (transiently transfected for the human receptors)
The experiment in a line: [3H]flumazenil competition binding, human GABA A α5β3γ2 receptors expressed in HEK293 cells. The protocol: The affinity of compounds at GABA A receptor subtypes was measured by competition for [3H]flumazenil (85 Ci/mmol; Roche) binding to HEK293 cells expressing rat (stably transfected) or human (transiently transfected) receptors of composition α1β3γ2, α2β3γ2, α3β3γ2 and α5β3γ2.
Cell pellets were suspended in Krebs-tris buffer (4.8 mM KCl, 1.2 mM CaCl2, 1.2 mM MgCl2, 120 mM NaCl, 15 mM Tris; pH 7.5; binding assay buffer), homogenized by polytron for ca. 20 sec on ice and centrifuged for 60 min at 4° C. (50000 g; Sorvall, rotor: SM24=20000 rpm). The cell pellets were resuspended in Krebs-tris buffer and homogenized by polytron for ca. 15 sec on ice. Protein was measured (Bradford method, Bio-Rad) and aliquots of 1 mL were prepared and stored at −80° C.
Radioligand binding assays were carried out in a volume of […] (96-well plates) which contained […] of cell membranes, [3H]flumazenil at a concentration of 1 nM for α1, α2, α3 subunits and 0.5 nM for α5 subunits and the test compound in the range of […]. Nonspecific binding was defined by 10^−5 M diazepam and typically represented less than 5% of the total binding. Assays were incubated to equilibrium for 1 hour at 4° C. and harvested onto GF/C uni-filters (Packard) by filtration using a Packard harvester and washing with ice-cold wash buffer (50 mM Tris; pH 7.5). After drying, filter-retained radioactivity was detected by liquid scintillation counting. Ki values were calculated using Excel-Fit (Microsoft) and are the means of two determinations.

[1] abbreviates: Table 1, human α5, [3H]flumazenil, mean of two determinations, read-out: Ki h.
Where [2] appears, read: human α5β3γ2, 0.5 nM [3H]flumazenil, mean of two determinations, read-out: Ki[μM] hα5.

As usually defined, the Ki is a dissociation constant, usually derived from enzyme kinetics or from competition with a known ligand. With `Cc1onc(-c2ccc(F)cc2)c1C(=O)c1c[nH]c2cc(C(=O)NCc3ccncc3)ccc12` [Example 16, 3-[3-(4-Fluoro-phenyl)-5-methyl-isoxazole-4-carbonyl]-1H-indole-6-carboxylicacid (pyridin-4-ylmethyl)-amide], the inhibitory constant (Ki) was 0.00365 µM under setting [1] and 0.00365 µM under setting [2]. In the case of `Cc1onc(-c2cccc(F)c2)c1C(=O)c1cn(-c2ccccc2)c2cc(C(=O)NCC3CC3)ccc12` [Example 48, 3-[3-(3-Fluoro-phenyl)-5-methyl-isoxazole-4-carbonyl]-1-phenyl-1H-indole-6-carboxylic acidcyclopropylmethyl-amide], the inhibition constant (Ki) under setting [1] was 0.0138 µM. For the molecule `Cc1onc(-c2ccccc2)c1C(=O)c1c[nH]c2cc(C(=O)NCc3ccco3)ccc12` [Example 7, 3-(5-Methyl-3-phenyl-isoxazole-4-carbonyl)-1H-indole-6-carboxylicacid (furan-2-ylmethyl)-amide], the inhibition constant (Ki) is 0.0053 µM under setting [1] and 0.0053 µM under setting [2]. Consider `CC(C)c1onc(-c2cccc(F)c2)c1C(=O)c1c[nH]c2cc(C(=O)NCC3CC3)ccc12` [Example 37, 3-[3-(3-Fluoro-phenyl)-5-isopropyl-isoxazole-4-carbonyl]-1H-indole-6-carboxylicacidcyclopropylmethyl-amide], for which the inhibition constant (Ki) under setting [1] was found to be 0.0393 µM. As to `Cc1onc(-c2ccc(F)cc2)c1C(=O)c1c[nH]c2cc(C(=O)NC3CC3)ccc12` [Example 23, 3-[3-(4-Fluoro-phenyl)-5-methyl-isoxazole-4-carbonyl]-1H-indole-6-carboxylicacidcyclopropylamide], the Ki runs as follows: under setting [1], 0.00305 µM; under setting [2], 0.00305 µM. Consider `C#CCNC(=O)c1ccc2c(C(=O)c3c(-c4cccc(F)c4)noc3C)cn(-c3ccccc3)c2c1` [Example 49, 3-[3-(3-Fluoro-phenyl)-5-methyl-isoxazole-4-carbonyl]-1-phenyl-1H-indole-6-carboxylic acidprop-2-ynylamide], for which the Ki is 0.0085 µM under setting [1] and 0.0085 µM under setting [2]. Consider `Cc1onc(-c2ccc(F)cc2)c1C(=O)c1c[nH]c2cc(C(=O)NCc3ccco3)ccc12` [Example 15, 3-[3-(4-Fluoro-phenyl)-5-methyl-isoxazole-4-carbonyl]-1H-indole-6-carboxylicacid (furan-2-ylmethyl)-amide], for which the inhibition constant (Ki) is, setting by setting: under setting [1], 0.00485 µM; under setting [2], 0.00484 µM. As for `Cc1onc(-c2ccccc2)c1C(=O)c1c[nH]c2cc(C(=O)NC3CCC3)ccc12` [Example 9, 3-(5-Methyl-3-phenyl-isoxazole-4-carbonyl)-1H-indole-6-carboxylicacidcyclobutylamide], the Ki under setting [1] was 0.00435 µM and the Ki under setting [2] stood at 0.00435 µM. As to `C#CCNC(=O)c1ccc2c(C(=O)c3c(-c4cccc(F)c4)noc3C)cn(C)c2c1` [Example 44, 3-[3-(3-Fluoro-phenyl)-5-methyl-isoxazole-4-carbonyl]-1-methyl-1H-indole-6-carboxylic acidprop-2-ynylamide], the Ki is 0.0383 µM. Regarding `Cc1onc(-c2ccc(F)cc2)c1C(=O)c1c[nH]c2cc(C(=O)NCCN3CCOCC3)ccc12` [Example 14, 3-[3-(4-Fluoro-phenyl)-5-methyl-isoxazole-4-carbonyl]-1H-indole-6-carboxylicacid (2-morpholin-4-yl-ethyl)-amide], the Ki under setting [1] came to 0.00455 µM and the Ki under setting [2] is 0.00455 µM. `Cc1onc(-c2cccc(F)c2)c1C(=O)c1cn(C)c2cc(C(=O)NC3CCOCC3)ccc12` [Example 45, 3-[3-(3-Fluoro-phenyl)-5-methyl-isoxazole-4-carbonyl]-1-methyl-1H-indole-6-carboxylic acid(tetrahydro-pyrann-4-yl)-amide] displayed a Ki of 0.049 µM. In the case of `Cc1onc(-c2ccccc2)c1C(=O)c1c[nH]c2cc(C(=O)NCCc3cnc[nH]3)ccc12` [Example 4, 3-(5-Methyl-3-phenyl-isoxazole-4-carbonyl)-1H-indol-6-carboxylicacid [2-(1H-imidazol-4-yl)-ethyl]-amide], the inhibition constant Ki runs as follows: under setting [1], 0.00265 µM; under setting [2], 0.00265 µM. Take `Cc1onc(-c2ccccc2)c1C(=O)c1c[nH]c2cc(C(=O)NCc3ccccn3)ccc12` [Example 5, 3-(5-Methyl-3-phenyl-isoxazole-4-carbonyl)-1H-indole-6-carboxylicacid (pyridin-2-ylmethyl)-amide]: the Ki was found to be 0.00395 µM under setting [1] and 0.00395 µM under setting [2]. Regarding `Cc1onc(-c2cccc(F)c2)c1C(=O)c1c[nH]c2cc(C(=O)NC3CCC3)ccc12` [Example 34, 3-[3-(3-Fluoro-phenyl)-5-methyl-isoxazole-4-carbonyl]-1H-indole-6-carboxylicacidcyclobutylamide], the inhibition constant (Ki) under setting [1] stood at 0.059 µM. Take `Cc1onc(-c2ccccc2)c1C(=O)c1c[nH]c2cc(C(=O)NC3CCCC3)ccc12` [Example 10, 3-(5-Methyl-3-phenyl-isoxazole-4-carbonyl)-1H-indole-6-carboxylicacidcyclopentylamide]: the inhibitory constant (Ki) under setting [1] was 0.0137 µM. Regarding `CC(C)c1onc(-c2cccc(F)c2)c1C(=O)c1c[nH]c2cc(C(=O)NC3CCCC3)ccc12` [Example 40, 3-[3-(3-Fluoro-phenyl)-5-isopropyl-isoxazole-4-carbonyl]-1H-indole-6-carboxylicacidcyclopentylamide], the Ki under setting [1] came to 0.0447 µM.
